Results: the supplement of paper PMC10307832

Tests used:
Assay in all cases: relative viability (nuclei count vs DMSO), 5 days (fraction); higher = more cells survive
Sulindac + Foretinib = compound: CC1=C(CC(=O)O)c2cc(F)ccc2/C1=C\c1ccc([S+](C)[O-])cc1 [Sulindac] + COc1cc2c(Oc3ccc(NC(=O)C4(C(=O)Nc5ccc(F)cc5)CC4)cc3F)ccnc2cc1OCCCN1CCOCC1 [Foretinib] (partner 0.25 µM)
Summary of the method: (§1)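 Relative viability divides the nuclei count in treated wells by that in vehicle wells. Lung cancer cell lines were seeded in 1536-well plates, dosed by pin tool the next day, and fixed and stained after 5 days in one step with final 0.05% Triton X-100, 1% formaldehyde and 1 ug/ml Hoechst. Dosing was a single drug or a fixed anchor-drug dose plus five library-drug doses (not always all listed) in √10 steps, and values are medians of duplicate plates imaged at 4×.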

[1] = compound: CN[C@@H]1C[C@H]2O[C@@](C)([C@@H]1OC)n1c3ccccc3c3c4c(c5c6ccccc6n2c5c31)C(=O)NC4 [Staurosporine] + Nc1nc2[nH]cc(CCc3ccc(C(=O)N[C@@H](CCC(=O)O)C(=O)O)cc3)c2c(=O)[nH]1 [Pemetrexed] (partner 0.2 µM)
Summary of the method: as §1

[2] = compound: O=c1[nH]cc(F)c(=O)[nH]1 [5-Fluorouracil] + Cc1cc(Nc2cc(N3CCN(C)CC3)nc(Sc3ccc(NC(=O)C4CC4)cc3)n2)n[nH]1 [Tozasertib] (partner 0.1 µM)
Summary of the method: as §1

[3] = compound: O=c1[nH]cc(F)c(=O)[nH]1 [5-Fluorouracil] + Nc1ncn([C@H]2C[C@H](O)[C@@H](CO)O2)c(=O)n1 [Decitabine] (partner 2 µM)
Summary of the method: as §1

| Cell Line | relative viability (Sulindac + Foretinib; first compound 0.08 µM) | relative viability (Sulindac + Foretinib; first compound 0.253 µM) | relative viability (Sulindac + Foretinib; first compound 2.53 µM) | relative viability (Sulindac + Foretinib; first compound 8 µM) | relative viability ([1]; first compound 0.005 µM) | relative viability ([1]; first compound 0.01581 µM) | relative viability ([1]; first compound 0.05 µM) | relative viability ([1]; first compound 0.1581 µM) | relative viability ([1]; first compound 0.5 µM) | relative viability ([2]; first compound 0.02 µM) | relative viability ([2]; first compound 0.2 µM) | relative viability ([2]; first compound 0.6325 µM) | relative viability ([2]; first compound 2 µM) | relative viability ([3]; first compound 0.02 µM) | relative viability ([3]; first compound 0.2 µM) | relative viability ([3]; first compound 0.6325 µM) | relative viability ([3]; first compound 2 µM) | relative viability (Sulindac + Foretinib; first compound 0.8 µM) |
| --- | --- | --- | --- | --- | --- | --- | --- | --- | --- | --- | --- | --- | --- | --- | --- | --- | --- | --- |
| HOP-62 | 1.18 | 1.1 | 1.23 | 1.25 | 0.267 | 0.133 | 0.134 | 0.113 | 0.0837 | 0.368 | 0.364 | 0.389 | 0.319 | 0.247 | 0.211 | 0.256 | 0.246 |  |
| HCC-366 | 0.838 | 0.964 | 0.994 | 0.998 | 0.133 |  | 0.0702 | 0.0274 | 0.0293 | 0.193 | 0.0738 | 0.0902 | 0.0478 | 0.344 | 0.32 | 0.194 | 0.128 | 0.999 |
| NCI-H2405 | 1.03 | 1.08 | 1.03 | 1.09 | 0.417 | 0.174 | 0.14 | 0.0988 | 0.1 | 0.686 | 0.81 | 0.733 | 0.703 | 0.734 | 0.741 | 0.738 | 0.661 | 0.981 |
| SW 900 |  | 0.645 | 0.948 | 1.11 | 0.404 | 0.356 | 0.296 | 0.161 | 0.115 | 0.595 | 0.644 | 0.602 | 0.421 | 0.415 | 0.362 | 0.407 | 0.431 |  |
| LXF-289 | 0.98 | 1.05 | 1.02 | 1.03 | 0.812 | 0.182 | 0.307 | 0.0978 | 0.159 | 0.189 | 0.164 | 0.134 | 0.138 | 0.384 | 0.402 | 0.34 | 0.323 | 0.98 |
| NCI-H1793 | 0.759 | 0.808 | 0.748 | 0.736 | 0.865 |  | 0.371 | 0.154 | 0.125 | 0.318 | 0.349 | 0.398 | 0.251 | 0.617 | 0.469 | 0.487 | 0.557 | 0.54 |
| NCI-H1734 | 0.864 | 0.956 | 1.03 | 0.958 | 0.394 | 0.305 | 0.338 | 0.133 | 0.141 | 0.249 | 0.261 | 0.241 | 0.237 | 0.536 | 0.518 | 0.499 | 0.396 |  |
| LU99A | 0.87 | 0.808 | 0.791 | 0.926 | 0.178 | 0.168 | 0.16 | 0.114 | 0.119 | 0.325 | 0.243 | 0.269 | 0.207 | 0.898 | 0.898 | 0.731 | 0.483 | 0.934 |
| RERF-LC-KJ | 1.03 | 0.934 | 0.856 | 0.927 | 0.501 | 0.423 | 0.375 | 0.205 | 0.202 | 0.499 | 0.432 | 0.416 | 0.414 | 0.66 | 0.762 | 0.776 | 0.736 | 0.65 |
